# In paper PMC6829886, “Inhibition of Non-Small Cell Lung Cancer Cells by Oxy210, an Oxysterol-Derivative that Antagonizes TGFβ and Hedgehog Signaling” (Cells, 2019):
# What was measured:
# A549 cells [1] = test: Cell counting (proliferation) assay in A549 cells; format: cell-based, human; settings: A549 cells, CP alone
# Description: A549 and H2030 cells cultured in RPMI 1640 containing 5% FBS in 12 well-plates at 20% confluence were treated with Oxy210 for 6 days and then trypsinized, spun down and resuspended in fresh medium. For the Carboplatin (CP) and Oxy210 co-treatment experiments, A549 cells cultured in RPMI 1640 containing 2% FBS in 12 well-plates at 20% confluence were treated with CP at different concentrations in the presence or absence of Oxy210 for 6 days. For the TGFβ-induced drug resistance assay, A549 cells cultured in RPMI 1640 containing 2% FBS in 12 well-plates at 10% confluence were pre-treated with TGFβ1 alone or together with Oxy210 for 3 days, and then treated with 20 μM CP for 4 days. An aliquot of cell suspension was applied to a hemocytometer and the cells were then counted under a light microscope.
# Statistical analyses were performed using the StatView 5 program (SAS Institute, Cary, NC, USA). All p values were calculated using ANOVA and Fisher’s projected least significant difference (PLSD) significance test. A value of p < 0.05 was considered significant. The IC 50 dose-response curves shown in Figure 4b and Figure 7a–c were modeled using a five-parameter logistic model. This model allows for asymmetric curves and automatically estimates the mean maximum and minimum response. Based on this model, IC 50 values were estimated corresponding to the dose halfway between min and max response. Models of dose versus response and dose versus log response were also evaluated (see Supplementary Materials). The R square statistic was computed as a measure of model fit.
# Figure 7 Inhibition of NSCLC cell proliferation by Oxy210. A549 (a), (c) and H2030 (b) cells were treated with the test agents as indicated in RPMI 1640 containing 5% FBS for 5 days and then were trypsinized and counted as described in Methods and Materials section. Data from a representative experiment are reported as the mean of triplicate determinations ± SD (* p < 0.05 vs. control; ** p < 0.01 vs. control).
# [2] = tested on: TGFβ signaling in NIH3T3-E1 cells; test: TGFβ target gene expression (Q-RT-PCR) in NIH3T3 cells; format: cell-based, mouse; settings: for expression of CTGF induced by TGFβ: NIH3T3 cells, TGFβ 20 ng/mL, 48 h (Figure 4e); for TGFβ inhibitory properties: statement in Discussion
# Description: Total RNA was extracted with the RNeasy Plus Mini Kit from Qiagen (Hilden, Germany) according to the manufacturer’s instructions. One microgram of RNA was reverse-transcribed using an iScript Reverse Transcription Supermix from Bio-Rad Laboratories (Hercules, CA, USA) to make single-stranded cDNA. The cDNAs were then mixed with Qi SYBR Green Supermix (Bio-Rad) for quantitative RT-PCR assay using a Bio-Rad I-cycler IQ quantitative thermocycler. All PCR samples were prepared in triplicate wells in a 96-well plate. After 40 cycles of PCR, melt curves were examined in order to ensure primer specificity. Fold changes in gene expression were calculated using the ΔΔCt method. Primers used for mouse were as follows: Oaz1 (5′-CCACTGCTTCGCCAGAGAG-3′) and (5′-CCCGGACCCAGGTTACTA-3′), Gli1 (5′- […]-3′ and 5′- GCT GATCCAGCCTAAGGTTCTC-3′), Ptch1 (5′-CCATCGGCGACAAGAACC-3′ and 5′-[…]-3′), Thbs1 (5′-[…]-3′ and 5′-CGGGGATCAGGTTGGCATT-3′), Cryab (5′-[…]-3′ and 5′-[…]-3′), Egr2 (5′-[…]-3′ and 5′-[…]-3′), CTGF (5′-GGGCCTCTTCTGCGATTTC-3′ and 5′-[…]-3′).
# Figure 4 Inhibition of ligand-induced Hedgehog and TGFβ signaling in mouse fibroblast cells. NIH3T3 cells were pretreated for 2 h with Oxy210 or various inhibitors as indicated in DMEM containing 5% FBS. Next, cells were treated with CAPAN-1 conditioned medium (CM) in the absence or presence of oxysterols or inhibitors. After 72 h, RNA was extracted and analyzed by Q-RT-PCR for the expression of Hh target genes Gli1 and Ptch1 and normalized to Oaz1 expression (a,b). (c,e) NIH3T3 cells were treated in DMEM containing 0.1% BCS overnight and then pretreated for 2 h with the inhibitors as indicated in DMEM containing 0.1%BCS. The cells were then treated with TGFβ (20ng/mL) in the absence or presence of the compounds. After 48 h, RNA was extracted and analyzed by Q-RT-PCR for the expression of TGFβ target genes as indicated and normalized to Oaz1 expression. (d) NIH3T3 cells cultured in 24 well-plates were transfected with a Smad response element reporter (SBE-Luciferase) plasmid and a pTK-Renilla-Luciferase plasmid. 6 hrs after transfection, cells were treated with the test agents as indicated for 48 hrs. Luciferase activity was measured and normalized to the Renilla luciferase activity. Data from a representative experiment are reported as the mean of triplicate determinations ± SD (** p < 0.01 vs. CM (a,b) or TGFβ (c,d and e) treated cells; ## p < 0.01 vs. control).
# [3] = Metabolic stability in human liver microsomes; format: in vitro ADME
# [4] = Metabolic stability in mouse liver microsomes; format: in vitro ADME
# Smo = tested on: Smo; parameters: method as in PMID 24591126; settings: cited from earlier work
# Human TGFBR1 = molecular target: T1, Human TGFBR1 (Homo sapiens, UniProt P36897); test: TGFβ receptor I kinase inhibition assay (Eurofins); format: biochemical; settings: vs. positive controls Cdk1/2 Inhibitor III and PKR Inhibitor
# T1 construct: Human TGFBR1 (amino acid 200 to end); purchased Eurofins
# T1 sequence (P36897 200-503 limits assumed): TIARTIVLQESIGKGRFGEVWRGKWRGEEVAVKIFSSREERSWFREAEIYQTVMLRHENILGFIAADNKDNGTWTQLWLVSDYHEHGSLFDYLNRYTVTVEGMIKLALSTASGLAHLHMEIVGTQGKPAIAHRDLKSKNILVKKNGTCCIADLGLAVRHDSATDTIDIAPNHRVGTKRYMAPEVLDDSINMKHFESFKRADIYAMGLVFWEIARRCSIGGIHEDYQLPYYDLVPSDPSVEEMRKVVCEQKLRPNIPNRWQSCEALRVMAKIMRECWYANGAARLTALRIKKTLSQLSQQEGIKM
# Description: (§1) Effect of Oxy210 on inhibition of TGFβ receptors I and II kinase activity was assessed by Eurofins (Celle-L’Evescault, France). TGFBR1 (h): Human TGFBR1 (amino acid 200 to end) was incubated with 8 mM MOPS pH 7.0, 0.2 mM EDTA, 1 mM MnCl2, 2 mg/mL casein, 10 mM Magnesium acetate and […] (specific activity and concentration as required). The reaction was initiated by the addition of the Mg/ATP mix. After incubation for 40 min at room temperature, the reaction was stopped by the addition of phosphoric acid to a concentration of 0.5%. 10 μL of the reaction was then spotted onto a P30 filtermat and washed four times for 4 min in 0.425% phosphoric acid and once in methanol prior to drying and scintillation counting. TGFBR2 (h): Human TGFBR2 (amino acid 188-end) was incubated with 20 mM Tris/HCl pH 8.5, 0.2 mM EDTA, 0.33 mg/mL MBP, 10 mM Magnesium acetate and [9-33P-ATP] (specific activity and concentration as required). The reaction was initiated by the addition of the Mg/ATP mix. After incubation for 120 min at room temperature, the reaction was stopped by the addition of phosphoric acid to a concentration of 0.5%. […]
# (§2) Figure 11 Inhibition of TGFβ-induced Smad2/3 phosphorylation and transcriptional activity. […] Luciferase activity was measured and normalized to the Renilla luciferase activity. […]
# Human TGFBR2 = molecular target: T2, Human TGFBR2 (Homo sapiens, UniProt P37173); test: TGFβ receptor II kinase inhibition assay (Eurofins); format: biochemical; settings: vs. positive controls Cdk1/2 Inhibitor III and PKR Inhibitor
# T2 construct: Human TGFBR2 (amino acid 188-end); purchased Eurofins
# T2 sequence (P37173 188-567 limits assumed): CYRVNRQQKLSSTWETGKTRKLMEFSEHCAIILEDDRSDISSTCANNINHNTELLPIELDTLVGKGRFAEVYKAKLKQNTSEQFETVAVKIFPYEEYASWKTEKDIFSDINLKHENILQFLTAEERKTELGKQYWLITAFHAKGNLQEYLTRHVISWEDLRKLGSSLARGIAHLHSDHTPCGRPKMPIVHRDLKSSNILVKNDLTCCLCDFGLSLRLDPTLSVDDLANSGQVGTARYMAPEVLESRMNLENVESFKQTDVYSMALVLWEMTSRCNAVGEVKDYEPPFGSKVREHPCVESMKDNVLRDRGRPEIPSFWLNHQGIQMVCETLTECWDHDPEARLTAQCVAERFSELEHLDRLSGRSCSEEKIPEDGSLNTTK
# Description: as §1, §2
# A549 cells [5] = tested on: A549 cells; parameters: method as in PMID 15967103; settings: consistent with own observations; cited from earlier work
# [6] = tested on: TGFβ induced activity of SBE-luciferase reporter; test: SBE-luciferase (Smad response-element) reporter assay in NIH3T3-E1 cells; format: cell-based, mouse; settings: 48 hrs
# Description: NIH3T3-E1 cells cultured in 24 well-plates at 90% confluence were transiently transfected with 0.1 μg of Smad response-element reporter (SBE-Luciferase) plasmid (Qiagen), or with 0.1 μg of Gli response-element reporter (pGL3b-8xGli-Luciferase) plasmid, and 10 ng of pSV40-Renilla-Luciferase plasmid (Promega, Madison, WI, USA) with or without co-transfection with 10ng of Gli1 overexpression vector, pSRα-Gli1 using a Lipofectamine LTX Plus transfection reagent, as previously described [23]. […] 6 hrs after transfection, cells were treated with test agents for 72 h. […] Twenty-four hours after transfection, cells were treated with test agents for 20 h. Then the firefly and Renilla luciferase activities were measured using a dual luciferase kit (Promega) and a GloMax-96 Microplate Luminometer (Promega) or a plate reader-SpectraMax iD3 (Molecular Devices, San Jose, CA, USA). The firefly luciferase activities were normalized to the Renilla luciferase activities.
compound,measurement,setting,value
"[NH2][Pt]1([NH2])[O]C(=O)C2(CCC2)C(=O)[O]1 [CP, Carboplatin, reference compound]","IC10 Estimate, dataset 4.1 - Fig 7c - CP",A549 cells [1]; original scale Y,0.66 µM
same,IC90,"A549 cells [1]; original scale Y, read-out: IC90 Estimate, dataset 4.1 - Fig 7c - CP",40.7 µM
same,IC50,"A549 cells [1]; ± SE, read-out: IC50 of CP",6.72 ± 0.72 µM
CS(=O)(=O)c1ccc(C(=O)Nc2ccc(Cl)c(-c3ccccn3)c2)c(Cl)c1 [GDC0449],expression of CTGF induced by TGFβ,[2],only Oxy210 robustly inhibited
"CC(C)CC[C@@H](O)[C@](C)(O)[C@H]1CC[C@H]2[C@@H]3CC=C4C[C@@H](O)CC[C@]4(C)[C@H]3CC[C@]12C [Oxy16, (2R,3R)-2-((3S,8S,9S,10R,13S,14S,17S)-3-hydroxy-10,13-dimethyl-2,3,4,7,8,9,10,11,12,13,14,15,16,17-tetradecahydro-1H-cyclopenta[a]phenanthren-17-yl)-6-methylheptane-2,3-diol, reference compound]",half-life,"[3]; human, liver microsomes, read-out: HLM, Half-Life",< 15 min
same,remaining at 1 h,"[3]; read-out: HLM, % Remaining after 60 min",6%
same,TGFβ inhibitory properties,[2],devoid of TGFβ inhibitory properties
same,remaining at 1 h,"[4]; read-out: MLM, % Remaining after 60 min",5%
same,half-life,"[4]; read-out: MLM, Half-Life",14 min
same,Smo binding affinity,Smo,lack of detectable Smo binding affinity
"C[C@]12CC[C@H](O)C[C@@H]1CC[C@@H]1[C@@H]2CC[C@@]2(C)[C@H]1CC[C@@H]2[C@](C)(O)CCc1ccc(F)cc1 [Oxy186, reference compound]",expression of CTGF induced by TGFβ,[2],only Oxy210 robustly inhibited
same,TGFβ inhibitory properties,[2],devoid of TGFβ inhibitory properties
same,inhibitory activity on TβRI in functional kinase assay,Human TGFBR1,did not display significant inhibitory activity
same,inhibitory activity on TβRII in functional kinase assay,Human TGFBR2,did not display significant inhibitory activity
"NC(=O)c1ccc(-c2nc(-c3ccc4c(c3)OCO4)c(-c3ccccn3)[nH]2)cc1 [SB431542, reference compound]",effect on proliferation of A549 cells,A549 cells [5],does not lessen the proliferation of A549 cells
same,TGFβ induced activity of SBE-luciferase reporter,[6],significantly inhibited
